Literature values in patent US8653026B2, “Treatment of type 2 diabetes with FTY720” (Diapin Therapeutics LLC, priority 2011, dated 2014).

Columns and labels:
Settings in all cases: literature reference (25); cited from earlier work
[1] = biological target: S1P5 (Homo sapiens, UniProt Q9H228)
[2] = biological target: S1P1 (Homo sapiens, UniProt P21453)
[3] = biological target: T1, S1P4 (Homo sapiens, UniProt O95977)
T1 sequence (O95977 1-384): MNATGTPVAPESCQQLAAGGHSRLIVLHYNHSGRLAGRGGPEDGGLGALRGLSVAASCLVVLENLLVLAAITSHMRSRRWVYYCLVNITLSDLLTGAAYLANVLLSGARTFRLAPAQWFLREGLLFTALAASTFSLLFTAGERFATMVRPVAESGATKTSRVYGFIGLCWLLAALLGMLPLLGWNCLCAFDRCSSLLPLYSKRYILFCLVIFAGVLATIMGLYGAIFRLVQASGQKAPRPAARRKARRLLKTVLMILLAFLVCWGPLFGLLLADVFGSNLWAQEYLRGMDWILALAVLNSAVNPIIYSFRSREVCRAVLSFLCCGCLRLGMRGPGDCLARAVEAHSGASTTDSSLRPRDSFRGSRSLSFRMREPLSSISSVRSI

[4] = biological target: S1P2 (Homo sapiens, UniProt O95136)
[5] = biological target: S1P3 (Homo sapiens, UniProt Q99500)
Chain of S1P3 (Q99500 whole entry, species assumed): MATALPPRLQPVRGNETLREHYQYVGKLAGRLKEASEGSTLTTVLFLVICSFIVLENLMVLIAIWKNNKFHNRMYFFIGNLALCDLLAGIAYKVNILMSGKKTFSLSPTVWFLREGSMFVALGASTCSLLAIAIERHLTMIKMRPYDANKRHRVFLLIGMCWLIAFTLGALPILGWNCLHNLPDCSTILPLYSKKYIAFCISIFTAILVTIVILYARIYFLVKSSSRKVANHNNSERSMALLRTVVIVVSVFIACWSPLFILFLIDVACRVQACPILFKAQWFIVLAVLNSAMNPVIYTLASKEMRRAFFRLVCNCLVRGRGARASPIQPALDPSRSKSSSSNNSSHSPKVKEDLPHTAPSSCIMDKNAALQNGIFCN

Chain of S1P1 (P21453 whole entry, species assumed): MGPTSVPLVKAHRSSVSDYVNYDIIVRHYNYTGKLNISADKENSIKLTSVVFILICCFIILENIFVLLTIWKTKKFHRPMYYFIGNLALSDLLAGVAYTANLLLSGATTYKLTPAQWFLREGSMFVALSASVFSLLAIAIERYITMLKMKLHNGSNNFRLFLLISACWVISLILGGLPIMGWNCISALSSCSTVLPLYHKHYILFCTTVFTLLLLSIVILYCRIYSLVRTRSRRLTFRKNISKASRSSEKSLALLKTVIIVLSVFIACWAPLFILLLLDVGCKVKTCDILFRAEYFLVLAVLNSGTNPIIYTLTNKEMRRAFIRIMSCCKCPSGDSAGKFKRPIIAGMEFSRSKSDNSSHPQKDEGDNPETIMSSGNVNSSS
Chain of S1P2 (O95136 whole entry, species assumed): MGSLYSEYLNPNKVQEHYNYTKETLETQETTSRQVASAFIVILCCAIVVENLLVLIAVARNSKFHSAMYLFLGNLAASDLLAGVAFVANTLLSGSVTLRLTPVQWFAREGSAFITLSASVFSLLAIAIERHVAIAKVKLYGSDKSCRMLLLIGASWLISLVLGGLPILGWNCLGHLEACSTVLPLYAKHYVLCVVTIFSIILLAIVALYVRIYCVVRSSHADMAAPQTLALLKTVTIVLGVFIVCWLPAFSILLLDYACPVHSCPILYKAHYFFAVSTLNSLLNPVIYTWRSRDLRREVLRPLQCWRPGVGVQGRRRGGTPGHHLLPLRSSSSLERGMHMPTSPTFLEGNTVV
Chain of S1P5 (Q9H228 whole entry, species assumed): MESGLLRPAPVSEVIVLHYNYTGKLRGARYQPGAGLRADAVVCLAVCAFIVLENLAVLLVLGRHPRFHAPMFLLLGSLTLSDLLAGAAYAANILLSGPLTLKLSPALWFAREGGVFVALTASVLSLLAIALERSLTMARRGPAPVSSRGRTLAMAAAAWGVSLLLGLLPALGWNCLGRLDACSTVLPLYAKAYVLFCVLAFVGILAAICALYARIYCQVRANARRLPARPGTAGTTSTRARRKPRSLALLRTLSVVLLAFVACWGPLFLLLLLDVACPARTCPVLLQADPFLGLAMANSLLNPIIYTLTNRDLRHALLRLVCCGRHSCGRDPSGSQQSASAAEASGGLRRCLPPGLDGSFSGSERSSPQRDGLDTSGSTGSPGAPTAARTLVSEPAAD

Compound: CCCCCCCCc1ccc(CCC(N)(CO)COP(=O)(O)O)cc1 (centres unmarked) [FTY720-P, 2-amino-2-(hydroxymethyl)-4-(4-octylphenyl)butyl dihydrogen phosphate]
- binding to S1P5 [1]: binds
- binding to S1P1 [2]: binds
- binding to S1P4 [3]: binds
- binding to S1P2 [4]: but not S1P2
- binding to S1P3 [5]: binds
